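Cells were grown in 96-well plates and exposed to each compound for 48 hours at five concentrations; endpoints were interpolated linearly between bracketing concentrations, or set to the highest concentration if not reached. GI50 marks 50% less growth. TGI: concentration producing complete growth inhibition.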
Tests used:
Test in all cases: NCI tumour cell line growth inhibition, 48 h
[1] = system: NCI-H226 lung
[2] = system: EKVX NSCLC
[3] = system: SF-539 CNS
[4] = system: HS 578T breast
[5] = system: A498 renal
[6] = system: OVCAR-3 ovarian
[7] = system: MOLT-4 leukemia
[8] = system: NCI-H522 lung
[9] = system: UACC-62 melanoma
[10] = system: HOP-62 NSCLC

Structure (SMILES)	GI50 [1] [µM]	TGI [1] [µM]	GI50 [2] [µM]	TGI [2] [µM]	GI50 [3] [µM]	TGI [3] [µM]	GI50 [4] [µM]	TGI [4] [µM]	GI50 [5] [µM]	TGI [5] [µM]	GI50 [6] [µM]	TGI [6] [µM]	GI50 [7] [µM]	TGI [7] [µM]	GI50 [8] [µM]	TGI [8] [µM]	GI50 [9] [µM]	TGI [9] [µM]	GI50 [10] [µM]	TGI [10] [µM]
COc1ccc(-c2cs/c(=N\N=C\c3ccc(O)cc3O)n2/N=C/c2ccc(O)cc2O)cc1	2.08	4.78	2.32	6.73	1.9	3.75	2.7	7.36	1.75	3.81	1.75	3.67	1.79	5.05	1.88	4.68	1.76	3.73		
CCC(O)c1ccc(Br)cc1NC(=O)c1cccc(Cl)c1 (stereo unspecified)	21.5	64.6			31.8	> 100	24.6	> 100	16.3	54	20.3	71.1	15.9	45.5	19.8	81	12.5	> 100	20	44.6
NS(=O)(=O)c1ccc(-n2nc3c(c2-c2ccc(Cl)cc2)Cc2ccccc2-3)cc1	16.8	35.4	17.1	33.5	17.5	31.6	12.1	33	4.7	19.1	17	31.6	5.51	23.1	5.63	19.3	13.7	26.9	30.4	49.4
CN(CCCCCl)P(=O)(OCCS(=O)(=O)CC(NC(=O)CCC(N)C(=O)O)C(=O)NC(C(=O)O)c1ccccc1)OCC1OC(n2ccc(N)nc2=O)C(F)(F)C1O (stereo unspecified)	8.03	> 93.3	11.4	> 100	0.0338	0.689	> 60.4	> 100	0.943	> 100	14.7	> 100	0.146	> 70.1	3.79	> 100	0.377	> 65.4	0.0861	> 85.9
NCCSSCCN		> 100		> 100		> 100		> 100		> 100		> 100		> 100		> 100		> 100		> 100
CC(C)c1c(-c2ccccc2)nc2c(C#N)c[nH]n2c1=O	27	> 87.7	49.4	> 100	29.4	> 100	29.7	99.6	13	51.1	25.2	63.8	32	> 100	26	80	24.3	72.2	25.4	> 95.7
O=C(Nc1cc(C(F)(F)F)ccc1Cl)c1ccc(NC2=C(Cl)C(=O)N(Cc3ccccc3)C2=O)cc1	13.9	65.5	46.6	> 100	28.9	77.5	31.9	> 100	69.9	> 100	19.1	46.1	3.53	77.7	11.1	28	16.7	38.9	> 100	> 100
C=CCn1c(C)nc2ccc(Nc3nc(Nc4ccc(F)cc4)nc4ccccc34)cc21					12.3	25.7	9.83	56.7	4.36	24.1	5.04	17.8	1.77	6.27	3.12	13.4	1.8	3.7		
O=C1/C(=C/c2cccc(Br)c2)COc2ccc(O)cc21	4.92	26	4.78	17.4	1.89	4.58	3.47	26.2	11.6	23.9	1.82	3.89	2.46	10.9	1.46	3.11	2.37	6.35	11.7	24.3
O=C(O)c1ccc(NCn2nc(-c3ccccc3O)oc2=S)cc1	> 100	> 100	> 100	> 100			> 100	> 100			> 100	> 100	4.69	26.8	> 100	> 100	34.1	97.7	47.2	> 100
COc1cc(C2SCCCCCCCCCCSC(c3ccc(O)c(OC)c3)SCCCCCCCCCCS2)ccc1O (stereo unspecified)		> 100		> 100						> 100				> 100		> 100		> 100		> 100
COc1ccc(/C=C/C(=O)/C=C/c2cc3ccccc3[nH]c2=O)cc1	4.42	19.7			2.63	7.13	3.14	47	5.73	18.8	2.85	7.91	3.2	9.24	1.97	4.67	2.43	9.41	4.67	17.8
CC1=C[C@H]2c3c([nH]c4ccccc34)C(c3c[nH]c4ccccc34)[C@H]2CC1 (stereo partly specified)		27.7		29.7		25.6				35.8				5.89		18.5		23.1		
OCc1ccc(N2CCc3cccc(F)c3C2)cc1Cl	0.0191	0.0936			27.8	> 87.7	21.9	77.8	< 0.0145	0.0405	< 0.0169	0.0505	23	71	13.4	36.3			0.0275	27.2
Cn1c(-c2c(N)n(Nc3cccc(Cl)c3)c3nc(C#N)c(C#N)nc23)nc2ccccc21			0.839	7.45	1.38	10.3	7.26	30.1	6.56	16.6	6.96	33.5	> 50	> 50	1.06	8.19	4.59	14.9	15.6	43.4
CCOC(=O)C(Cc1c[nH]c2c(N(CCO)CCO)cccc12)(NC(C)=O)C(=O)OCC	439	> 1000	> 1000	> 1000	> 1000	> 1000	302	> 1000			270	873			> 1000	> 1000	263	> 1000	> 1000	> 1000

Structure (SMILES)	GI50 [1] [µM]	TGI [1] [µM]	GI50 [2] [µM]	TGI [2] [µM]	GI50 [3] [µM]	TGI [3] [µM]	GI50 [4] [µM]	TGI [4] [µM]	GI50 [5] [µM]	TGI [5] [µM]	GI50 [6] [µM]	TGI [6] [µM]	GI50 [7] [µM]	TGI [7] [µM]	GI50 [8] [µM]	TGI [8] [µM]	GI50 [9] [µM]	TGI [9] [µM]	GI50 [10] [µM]	TGI [10] [µM]
CCCCCCCCOC(=O)CC[C@@H](C)[C@H]1CC[C@H]2[C@@H]3[C@H](OC(=O)CCN)C[C@@H]4C[C@H](OC(=O)CCN)CC[C@]4(C)[C@H]3C[C@H](OC(=O)CCN)[C@]12C	13	44.8			3.01	8.77			23.8	48.1	14.6	35.4			2.26	4.42	3.45	12.7	2.71	7.14
COc1cc2nc(SCc3cc(OC)c(OC)c(OC)c3)n(Cc3ccccc3)c(=O)c2cc1OC	6.85	> 100			2.81	16.2	2.09	21.3	1.62	7.87	2.24	8.37	3.81	> 100	0.744	5.83	3.22	50.5	4.48	20.6
CC1=Nc2c(ccc3c2C(=O)c2ccccc2C3=O)NC(c2cccc3c2CCC3)C1 (stereo unspecified)		> 100		> 100		> 100				> 100		> 100		> 100		> 100		> 100		> 100
O=c1c2cc(F)ccc2sc2c(N3CCNCC3)nc3ccc(F)cc3c12	1.53	3.03	1.62	3.04	1.72	3.15	1.7	3.6	1.67	3.09	1.73	3.17			1.7	3.39	1.74	3.19	1.82	3.85
CCNC(=O)COc1ccc(Br)cc1Br		> 100		34.3		> 100				> 100		> 100		> 100		> 100		> 100		> 100
N#Cc1ccccc1C(Cl)(Cl)c1cnccn1		> 100		> 100		> 100				> 100				69.7		38.4		> 100		> 100
CC(Oc1ccc2c(-c3ccccc3)cc(=O)oc2c1)C(=O)O (stereo unspecified)		> 100		> 100		> 100				> 100		> 100		> 100		> 100		> 100		> 100
O=C(Cc1nc2ccccc2c(=O)n1-c1ccccc1Cl)c1ccncc1		> 100		> 100		> 100				> 100		> 100		> 100		> 100		> 100		> 100
O=C(CCC(=O)Nc1ccc(Cl)c(Cl)c1)CC(=O)c1ccc(Br)cc1		> 100		> 100		> 100				> 100		> 100		> 100		> 100		> 100		
COc1ccc(NC(=O)CSC2=C(Nc3cccc(Br)c3)C(=O)N(Cc3ccccc3)C2=O)cc1Cl	> 100	> 100	84.8	> 100	> 100	> 100	35.4	> 100			> 100	> 100	1.73	> 100	6.85	82.2	46.2	> 100	> 100	> 100
CC[n+]1oc(C(=O)c2ccc(Cl)cc2)c(-c2ccccc2)c1-c1ccccc1.[Cl][Fe]([Cl])([Cl])[Cl]	75.2	> 100	30.4	> 100	> 100	> 100	34.5	> 100	22.2	75.1	23.1	56.2	47.2	> 100			63.8	> 100	29.7	> 100
COc1ccc(NC(=O)/C(=C/c2ccccc2)C(C)=O)cc1		96.9		49.4		28.7				36.7		29.9		32.6		4.6		22.3		32.3
CCCCCCCCCCCCCCCCCC1=NC(C)(C)CN1CC(C)O (stereo unspecified)	18.8	38.5	13.7	30.1	4.03	19.1	14	34.2	15.3	32.2	5.35	19.5			4.5	23.8	3.44	12.5	5.69	26
Cc1ccc(NC(=O)CCc2nc(N)nc(N)c2-c2ccccc2)cc1C		> 100		> 100		> 100				> 100		> 100		> 100		> 100		> 100		> 100
CCOC(=O)Nc1nc2ccc(OC)cc2s1	> 100	> 100			> 100	> 100	> 100	> 100			> 100	> 100	> 100	> 100	> 100	> 100	> 100	> 100	> 100	> 100
CCOC(=O)C(=O)Nc1ccccc1C		> 100		> 100		> 100				> 100				> 100		> 100		> 100		> 100

Reference: PubChem BioAssay (NCI)
